Measurements: ChEMBL document CHEMBL5120920, “A Mitochondria-Targeted Phenylbutyric Acid Prodrug Confers Drastically Improved Anticancer Activities” (J Med Chem, 2022)
Activity calls are given as the source filed them. No cut-off for these calls is given here.

Assays:
[1] = Stability of the compound in Tris-HCL buffer at pH 7.4 measured for 24 hrs by RP-HPLC-UV analysis; type: physicochemical; conditions: pH 7.4, 24 h
[2] = tested on: A-375; experiment: Inhibition of glycolysis in human A-375 cells assessed as reduction in lactate formation at 0.25 to 5 uM incubated for 8 hrs; type: functional, cell-based; conditions: dose 0.25-5 µM
[3] = tested on: A-375; experiment: Induction of mitochondrial damage in human A-375 cells assessed as decrease in oxygen consumption rate at 5 uM measured after 4 hrs; type: functional, cell-based
[4] = Toxicity in BALB/c mouse at 200 mg/kg, iv administered for 7 days; type: organism-based; conditions: in vivo, 168 h, time 7 day
[5] = biological target: Histone deacetylase (Homo sapiens) (UniProt Q13547+O15379+Q9UBN7+Q92769+Q9UQL6+Q8WUI4+Q9BY41+Q96DB2+P56524+Q9UKV0+Q969S8); experiment: Inhibition of HDAC in human A-375 cells assessed as upregulation of alpha-tubulin acetylation at 5 to 20 uM measured after 24 hrs; type: cell-based; conditions: dose 5-20 µM
[6] = tested on: A-375; experiment: Cytotoxicity against human A-375 cells assessed as reduction in cell vaibility measured at 24 hrs in absence of BNPP by MTT assay; type: functional, cell-based; conditions: A-375, 24 h
[7] = tested on: A-375; experiment: Antiproliferative activity against human A-375 cells assessed as inhibition of cell viability incubated for 72 hrs by MTT assay; type: functional, cell-based; conditions: A-375, 72 h
[8] = tested on: HaCaT; experiment: Induction of mitochondrial membrane hyperpolarization in human HaCaT cells assessed as JC-1 level at 2.5 to 10 uM incubated for 4 hrs by JC-1 staining based flow cytometry analysis relative to control; type: functional; conditions: dose 2.5-10 µM
[9] = Toxicity in BALB/c mouse assessed as histopathological changes in kidney at 50 to 100 mg/kg, iv measured after 7 days by H and E staining based assay; type: organism-based; conditions: in vivo, 168 h, dose 50-100 mg/kg, time 7 day
[10] = tested on: A-375; experiment: Induction of cell cycle arrest in human A-375 cells assessed as accumulation at G2 phase at 7.5 uM incubated for 24 hrs by PI staining based flow cytometry analysis (reference value: 7.92 %); type: functional
[11] = tested on: A-375; experiment: Antitumor activity against human A-375 cells xenografted in nude mouse assessed as induction of apoptosis by measuring morphological changes at 40 mg/kg, ip measured once every two days for 14 days by TUNEL assay; type: functional, organism-based; conditions: time 14.0 day
[12] = tested on: A-375; experiment: Antitumor activity against human A-375 cells xenografted in nude mouse assessed as tumor inhibition ratio at 40 mg/kg, ip measured once every two days for 14 days; type: functional; conditions: A-375, 336 h, time 14 day, read-out: TGI
[13] = tested on: A-375; experiment: Induction of mitochondrial membrane depolarization in human A-375 cells assessed as reduction in red fluorescence intensity incubated for 4 hrs by TMRM staining based fluorescence microscopy analysis; type: functional, cell-based; conditions: dose 2.5-10 µM, DDE = dose-dependent effect
[14] = tested on: A-375; experiment: Inhibition of glycolysis in human A-375 cells assessed as reduction in extracellular acidification rate at 0.25 to 5 uM measured after 4 hrs; type: functional, cell-based; conditions: dose 0.25-5 µM
[15] = Toxicity in BALB/c mouse assessed as histopathological changes in heart at 50 to 100 mg/kg, iv measured after 7 days by H and E staining based assay; type: organism-based; conditions: in vivo, 168 h, dose 50-100 mg/kg, time 7 day
[16] = Efflux ratio of apparent permeability from basolateral to apical side over apical to basolateral side in human Caco2 cells by LC-MS/MS analysis; type: ADME, cell-based; conditions: Caco-2
[17] = tested on: A-375; experiment: Induction of mitochondrial membrane depolarization in human A-375 cells assessed as increase in JC-1 monomer incubated for 4 hrs by JC-1 staining based flow cytometry analysis; type: functional, cell-based; conditions: dose 2.5-10 µM, DDE = dose-dependent effect
[18] = tested on: A-375; experiment: Cytotoxicity against human A-375 cells assessed as reduction in cell vaibility measured at 72 hrs in presence of BNPP by MTT assay; type: functional, cell-based; conditions: A-375, 72 h
[19] = tested on: A-375; experiment: Induction of apoptosis in human A-375 cells assessed as apoptotic cells at 5 uM measured after 48 hrs by Annexin V FITC/PI staining based flow cytometry analysis relative to control; type: functional
[20] = tested on: L02; experiment: Induction of mitochondrial membrane hyperpolarization in human L02 cells assessed as JC-1 level at 2.5 to 10 uM incubated for 4 hrs by JC-1 staining based flow cytometry analysis relative to control; type: functional; conditions: dose 2.5-10 µM
[21] = tested on: A-375; experiment: Effect on mitochondrial bio-energestics in human A-375 cells assessed as increase in OCR/ECRA ratio at 0.25 to 1 uM measured after 4 hrs; type: functional, cell-based; conditions: dose 0.25-1 µM
[22] = Toxicity in BALB/c mouse assessed as animal death at 50 to 100 mg/kg, […] measured after 7 days; type: organism-based; conditions: in vivo, 168 h, dose 50-100 mg/kg, time 7 day
[23] = Metabolic stability in Sprague-Dawley rat plasma assessed as elimination half life by LC-MS/MS analysis; type: ADME, cell-free; conditions: read-out: beta t1/2
[24] = tested on: A-375; experiment: Antitumor activity against human A-375 cells xenografted in nude mouse assessed as reduction in tumor weight at 10 to 40 mg/kg, ip measured once every two days for 14 days; type: functional, organism-based; conditions: dose 10-40 mg/kg, time 14.0 day
[25] = tested on: A549; experiment: Induction of mitochondrial membrane hyperpolarization in human A549 cells assessed as JC-1 level at 2.5 to 10 uM incubated for 4 hrs by JC-1 staining based flow cytometry analysis relative to control; type: functional; conditions: dose 2.5-10 µM
[26] = tested on: A-375; experiment: Antitumor activity against human A-375 cells implanted in BALB/c mouse assessed as tumor growth inhibition at 40 mg/kg, ip measured once every two days for 14 days; type: functional, organism-based; conditions: time 14.0 day
[27] = tested on: A-375; experiment: Antitumor activity against human A-375 cells xenografted in nude mouse assessed as induction of apoptosis by measuring morphological changes at 40 mg/kg, ip measured once every two days for 14 days by H and E staining based assay; type: functional, organism-based; conditions: time 14.0 day
[28] = tested on: A549; experiment: Antiproliferative activity against human A549 cells assessed as inhibition of cell viability incubated for 72 hrs by MTT assay; type: functional, cell-based; conditions: A549, 72 h
[29] = tested on: A-375; experiment: Cytotoxicity against human A-375 cells assessed as reduction in cell vaibility measured at 24 hrs in presence of BNPP by MTT assay; type: functional, cell-based; conditions: A-375, 24 h
[30] = tested on: A-375; experiment: Induction of cell cycle arrest in human A-375 cells assessed as accumulation at G1 phase at 7.5 uM incubated for 24 hrs by PI staining based flow cytometry analysis (reference value: 68.07 %); type: functional
[31] = tested on: A-375; experiment: Inhibition of glycolysis in human A-375 cells assessed as reduction in extracellular acidification rate at 0.25 to 1 uM measured after 4 hrs; type: functional, cell-based; conditions: dose 0.25-1 µM
[32] = tested on: MDA-MB-231; experiment: Induction of mitochondrial membrane hyperpolarization in human MDA-MB-231 cells assessed as JC-1 level at 2.5 to 10 uM incubated for 4 hrs by JC-1 staining based flow cytometry analysis relative to control; type: functional; conditions: dose 2.5-10 µM
[33] = tested on: A-375; experiment: Inhibition of colony formation in human A-375 cells preincubated for 72 hrs followed by drug free medium addition for 10 to 14 days by crystal violet staining based analysis; type: functional, cell-based; conditions: dose 0.5-1 µM, DDE = dose-dependent effect
[34] = tested on: A-375; experiment: Induction of cell cycle arrest in human A-375 cells assessed as accumulation at S phase at 7.5 uM incubated for 24 hrs by PI staining based flow cytometry analysis (reference value: 24.01 %); type: functional
[35] = tested on: A-375; experiment: Antitumor activity against human A-375 cells implanted in BALB/c mouse assessed as shrinkage of tumor tissue at 40 mg/kg, ip measured once every two days for 14 days; type: functional, organism-based; conditions: time 14.0 day

## O=C(CCCCCCCCC[P+](c1ccc(C(F)(F)F)cc1)(c1ccc(C(F)(F)F)cc1)c1ccc(C(F)(F)F)cc1)NC(COC(=O)CCCc1ccccc1)(COC(=O)CCCc1ccccc1)COC(=O)CCCc1ccccc1.[Br-]
[1]
  Stability: Stable
[2]
  inhibition: Active
[3]
  Activity: Active
[4]
  Activity: Non-Toxic
[5]
  inhibition: Active
[6]
  IC50: 6.06 µM
[7]
  IC50: 2.22 µM
[8]
  Activity: 12.67%
[9]
  Activity: Non-Toxic
[10]
  Activity: 7.88%
[11]
  Activity: Active
[12]
  inhibition in vivo at 40 mg/kg: 76%
[13]
  Activity: Dde
[14]
  inhibition: Active
[15]
  Activity: Non-Toxic
[16]
  efflux ratio: 0.69
[17]
  Activity: Dde
[18]
  IC50: 14.1 µM
[19]
  Activity: 12%
[20]
  Activity: 11.49%
[21]
  Activity: Active
[22]
  Activity: Non-Toxic
[23]
  half-life: 4.28 h
[24]
  Activity: Active
[25]
  Activity: 5.01%
[26]
  Activity: Active
[27]
  Activity: Active
[28]
  IC50: 4.72 µM
[29]
  IC50: 28.4 µM
[30]
  Activity: 80.37%
[31]
  inhibition: Active
[32]
  Activity: 3.27%
[33]
  inhibition: Dde
[34]
  Activity: 11.75%
[35]
  Activity: Active
